Measurements from US8378098B2, “Imidazol[1,2-α]quinoxalines and derivatives for the treatment of cancers” (Universite de Montpellier I, priority 2007, dated 2013).
Entries after “also recorded” stand apart in the source; their conditions may differ.

Columns and labels:
[1] = system: CEM, HuT-102, MT2, and Jurkatt cells; test: cell cycle analysis by flow cytometry (propidium iodide); format: cell-based, human
Experimental: (A) Effects of EAPB0203 on the distribution of the cell cycle of CEM, HuT-102, MT2, and Jurkatt cells. The cells treated by EAPB0203 were marked with propidium iodide ([…]) and analysis of the cellular cycle was carried out by FACScan flow cytometry. (b) The pre-G1 percentage represents the apoptotic cells. (c) The cells in cycle, the sum of phases (S+G2/M), are represented as a percentage of non-apoptotic cells. The results represent two independent experiments.
The mechanisms of inhibition of cell proliferation caused by EAPB0203 in the cell lines studied were determined by flow cytometry. This study evaluated the distribution of cells in the various phases of the cell cycle. […] This pre-G0/G1 peak corresponds to cells whose DNA content is decreased by loss of cleaved DNA fragments during cell death (FIG. 3).

LS174T (colon cancer) = test: in vitro cytotoxicity on LS174T colon cancer line; format: cell-based; settings: Homo sapiens, Table 2, unit inferred
Excerpt: (§1) Several human carcinoma cell lines were used: • Lines A375, M4Be, RPMI7591 from human melanoma. • Line LS174T from colon carcinoma. • Line A 2780 from ovarian carcinoma. • The Raji line from B lymphoma. • Line MCF7 from breast carcinoma.

[2] = system: HTLV-I-positive human T lines (HuT-102 and C8166, and MT2); test: cell growth of HTLV-I-positive human T lines (CellTiter 96, trypan blue exclusion); format: cell-based; settings: 1 to 10 μM, 24-96 h
Experimental: FIG. 2: HTLV-I-positive and HTLV-I-negative malignant human cell lines are sensitive to EAPB0203, but activated or inactivated normal T lymphocytes are resistant. Effects of EAPB0203 on the growth of human T lines not infected by HTLV-I (CEM, Jurkatt, Molt-4 and HuT-78), HTLV-I-positive human T lines (HuT-102 and C8166, and MT2), and normal lymphocytes at rest or activated by PHA. The activated normal PBMC were supplemented with 2% PHA. EAPB0203 was added at the concentrations indicated in mole/l for 24-96 h. Cell growth is analyzed with the “CellTiter 96®” nonradioactive cell growth kit. The results are expressed as a percentage of the control (0.1% DMSO) and represent the mean of the results obtained in three independent experiments.
The in vitro activity of EAPB0203 on adult T-cell leukemia (ATL) transformed by retrovirus HTLV-I (HuT-102, MT2 . . . ) and malignant HTLV-I-negative T-cells (CEM, Jurkatt . . . ) was evaluated. Initially, the effect of EAPB0203 on cell growth of these lines was evaluated by two techniques, the nonradioactive “CellTiter 96®” cell growth kit and the trypan blue exclusion method.

M4Be (melanoma) = test: in vitro cytotoxicity on M4Be melanoma line; format: cell-based; settings: Homo sapiens, Table 2, unit inferred, read-out: IC50 M4Be
Excerpt: as §1

M4Be human melanoma = test: anti-proliferative activity in vivo, M4Be human melanoma xenografted in athymic mice
Experimental: FIG. 1: Effects of fotemustine (20 mg/kg once per week for 3 weeks) and EAPB0203 (20 mg/kg twice per week for 3 weeks) on tumour growth in athymic Swiss mice xenografted with M4Be human melanoma cell line.
Δ, control; ▪, EAPB0203; ●, fotemustine. The data are the results of only one experiment carried out on six mice per group. The results are represented as mean±SEM.
In this study, data are presented relating to the activity of EAPB0203 on the volume of a type of human melanoma tumour model (M4Be lines), xenografted in athymic mice. This study required as a preliminary step several tests of grafts of human melanoma cell lines in athymic mice before establishing the adequate animal model. The in vivo study was performed following the in vitro experiments described previously.
The activity and specificity of EAPB0203 in vivo on tumour growth of human melanoma are evaluated by monitoring tumour development in mice carrying M4Be melanoma treated by administration of fotemustine and EAPB0203 at various doses.
For this study, 18 Swiss nude mice (3 groups of 6 mice) were used. M4Be cancer cells in suspension were injected subcutaneously into the right flank of each athymic Swiss nude female 7-week-old mouse weighing 20-22 g at the beginning of the protocol. The mice were then maintained in a sterile atmosphere and received aseptic food and water. The weight of the mouse and the growth of the tumour in three dimensions were recorded twice a week.
A first group of 6 mice (reference) will receive fotemustine by intra-peritoneal route at a dose of 20 mg/kg once per week for 3 weeks, beginning 7 days after inoculation at the time when the tumour will be visible and palpable. A second group of 6 mice will receive EAPB0203 at the same dose of 20 mg/kg via intra-peritoneal route but twice per week (40 mg/kg per week). The third group (control) of 6 mice will receive only the administration carrier. Tumour volume is calculated by the following formula: length X width X height X 0.52, and is expressed as mean±SEM mm^3.
For fotemustine and EAPB0203, the sequence of administrations is a treatment of three weeks, then two weeks without treatment, and then a second treatment of three weeks.

CNc1nc2ccccc2n2c(CCc3ccccc3)cnc12 [EAPB0203, N-methyl-1-(2-phenylethyl)imidazo[1,2-a]quinoxalin-4-amine]
pre-G0/G1 apoptotic population [1]: presence of a pre-G0/G1 apoptotic population | distribution of cells in the phases of the cell cycle ([1]; propidium iodide): induces the termination of the cell cycle in phase G2/M; also recorded: progressive accumulation of cells in phase G2 | IC50 (LS174T (colon cancer)): 4.12 ± 0.67 µM | growth of ATL cells (HTLV-I-positive) [2]: sensitive; also recorded: progressive, dose-dependent inhibition | IC50 (M4Be (melanoma)): 2580 ± 400 nM | tolerance (weight, side effects) (M4Be human melanoma; 20 mg/kg twice per week, intra-peritoneal, mice carrying M4Be melanoma): well tolerated without loss of weight or apparent side effects | tumour growth compared to control mice and fotemustine mice (M4Be human melanoma; EAPB0203 20 mg/kg twice per week i.p., FIG. 1): significant delay in tumour growth | tumour volume of a remaining mouse when last fotemustine mice were euthanatized (M4Be human melanoma; day 76, 20 mg/kg twice per week i.p.): less than 2 cm^3
